Experimental data published in ChEMBL document CHEMBL6153018, “Macrocycles and macrocyclization in anticancer drug discovery: Important pieces of the puzzle” (Eur J Med Chem, 2024).
In brackets after ≈: the same amount, converted by molar mass. Square brackets hold non-standard residues; d marks the D form. Peptide text beside a SMILES is read from it. Lys(Me2) = CN(C)CCCC[C@H](N)C(=O)O; NMeT = CN[C@H](C(=O)O)[C@@H](C)O; NMeA = CN[C@@H](C)C(=O)O

How the values were obtained:
in vitro [1] = details: human, Caco-2
in vitro [2] = details: dog, MDCK
physchem = details: PBS buffer, pH 7.4

| Papp A→B at 1 h (in vitro [1]) [×10⁻⁶ cm/s] | Papp A→B at 2 h (in vitro [2]) [×10⁻⁶ cm/s] | solubility (physchem) [µM] | Compound |
| --- | --- | --- | --- |
| 5.55 |  |  | COC[C@@H]1NC(=O)[C@H](CC(N)=O)NC(=O)[C@H](CCCCN(C)C)NC(=O)[C@H](Cc2ccccc2)NC(=O)[C@H](Cc2ccc(OC)cc2)NC1=O (cyclo([Lys(Me2)]NS(Me)Y(Me)F)) |
| 0.83 |  |  | C[C@@H]1NC(=O)[C@H](CCCCN)NC(=O)[C@H](Cc2ccccc2)NC(=O)[C@H](Cc2ccc(O)cc2)NC(=O)[C@H](CO)NC1=O (cyclo(ASYFK)) |
|  | 0.593 | 880 (≈ 922 µg/mL) | CC(C)C[C@@H]1NC(=O)[C@H]([C@@H](C)O)N(C)C(=O)[C@H]2CCCN2C(=O)[C@H](CC(C)C)NC(=O)[C@H](C)N(C)C(=O)[C@H](CC(C)C)NC(=O)[C@H]([C@@H](C)O)N(C)C(=O)[C@H]2CCCN2C(=O)[C@H](CC(C)C)NC(=O)[C@H](C)N(C)C1=O (cyclo(L[NMeA]L[dP][NMeT]L[NMeA]L[dP][NMeT])) |
